{
  "source": "paper PMC5218480",
  "about": "(PLoS ONE, 2017)",
  "system": "MV-4-11 cells",
  "test": "Gene expression microarray analysis (Affymetrix PrimeView) and GSEA",
  "format": "cell-based, human",
  "set-up": "RFU PODN (11730768_x_at) / Fold change /veh PODN (11730768_x_at) / RFU LINC00158 (11744669_a_at) / Fold change /veh LINC00158 (11744669_a_at) / RFU DUSP10 (11751237_a_at) / Fold change /veh DUSP10 (11751237_a_at) / RFU ID3 (11757404_x_at) / Fold change /veh ID3 (11757404_x_at) / RFU PLEKHG5 (11737974_s_at) / Fold change /veh PLEKHG5 (11737974_s_at) / RFU LRRC4B (11730491_at) / Fold change /veh LRRC4B (11730491_at) / RFU GIMAP4 (11747438_a_at) / Fold change /veh GIMAP4 (11747438_a_at) / RFU KRT8 (11758183_x_at) / Fold change /veh KRT8 (11758183_x_at) / RFU CNN1 (11734310_a_at) / Fold change /veh CNN1 (11734310_a_at) / RFU VPS37D (11726825_at) / Fold change /veh VPS37D (11726825_at) / RFU C10orf10 (11716522_x_at) / Fold change /veh C10orf10 (11716522_x_at) / RFU KIR2DL2 /// KIR2DL4 /// KIR2DL5A /// KIR2DL5B /// KIR2DS1 /// KIR2DS2 /// KIR2DS3 /// KIR2DS4 /// KIR3DL3 /// KIR3DL3 /// KIR3DS1 (11738374_at) / Fold change /veh KIR2DL2 /// KIR2DL4 /// KIR2DL5A /// KIR2DL5B /// KIR2DS1 /// KIR2DS2 /// KIR2DS3 /// KIR2DS4 /// KIR3DL3 /// KIR3DL3 /// KIR3DS1 (11738374_at) / RFU C1QL1 (11718748_at) / Fold change /veh C1QL1 (11718748_at) / RFU TMPRSS4 (11747572_a_at) / Fold change /veh TMPRSS4 (11747572_a_at) / RFU HAMP (11756126_x_at) / Fold change /veh HAMP (11756126_x_at) / RFU RNFT2 (11725882_a_at) / Fold change /veh RNFT2 (11725882_a_at) / RFU NR4A2 (11747474_a_at) / Fold change /veh NR4A2 (11747474_a_at) / RFU ABCC12 (11746883_a_at) / Fold change /veh ABCC12 (11746883_a_at) / RFU TMEM136 (11760407_x_at) / Fold change /veh TMEM136 (11760407_x_at) / RFU CLDN22 /// WWC2 (11732394_at) / Fold change /veh CLDN22 /// WWC2 (11732394_at) / RFU HLA-DPB1 (11760878_x_at) / Fold change /veh HLA-DPB1 (11760878_x_at) / RFU SPINT1 (11716480_a_at) / Fold change /veh SPINT1 (11716480_a_at) / RFU GAP43 (11754022_s_at) / Fold change /veh GAP43 (11754022_s_at) / RFU A4GNT (11735810_at) / Fold change /veh A4GNT (11735810_at) / RFU PRB3 (11715151_x_at) / Fold change /veh PRB3 (11715151_x_at) / RFU TUBB4B (11761932_at) / Fold change /veh TUBB4B (11761932_at) / RFU CAPN14 (11732068_a_at) / Fold change /veh CAPN14 (11732068_a_at) / RFU TMCC2 (11721928_a_at) / Fold change /veh TMCC2 (11721928_a_at) / RFU IRGQ (11745062_a_at) / Fold change /veh IRGQ (11745062_a_at) / RFU FAM174B (11720279_a_at) / Fold change /veh FAM174B (11720279_a_at) / RFU TMPRSS4 (11748680_a_at) / Fold change /veh TMPRSS4 (11748680_a_at) / RFU FAM212B (11763350_a_at) / Fold change /veh FAM212B (11763350_a_at) / RFU PLEKHG5 (11743358_a_at) / Fold change /veh PLEKHG5 (11743358_a_at) / RFU ZSCAN30 (11745921_a_at) / Fold change /veh ZSCAN30 (11745921_a_at) / RFU CMKLR1 (11741424_a_at) / Fold change /veh CMKLR1 (11741424_a_at) / RFU LOC101060620 /// MAPK8IP1 (11723275_at) / Fold change /veh LOC101060620 /// MAPK8IP1 (11723275_at) / RFU SPTSSB (11747773_x_at) / Fold change /veh SPTSSB (11747773_x_at) / RFU PRSS12 (11739890_at) / Fold change /veh PRSS12 (11739890_at) / RFU BIN1 (11741810_x_at) / Fold change /veh BIN1 (11741810_x_at) / RFU WNT11 (11732464_a_at) / Fold change /veh WNT11 (11732464_a_at) / RFU C10orf10 (11716521_a_at) / Fold change /veh C10orf10 (11716521_a_at) / RFU C5orf56 (11738089_at) / Fold change /veh C5orf56 (11738089_at) / RFU CYB561 (11721691_x_at) / Fold change /veh CYB561 (11721691_x_at) / RFU ANKRD19P (11752326_a_at) / Fold change /veh ANKRD19P (11752326_a_at) / RFU OR2T12 /// OR2T33 /// OR2T8 (11738714_s_at) / Fold change /veh OR2T12 /// OR2T33 /// OR2T8 (11738714_s_at) / RFU VCAN (11748164_a_at) / Fold change /veh VCAN (11748164_a_at) / RFU JSRP1 (11732532_at) / Fold change /veh JSRP1 (11732532_at) / RFU KRTAP10-11 (11738290_x_at) / Fold change /veh KRTAP10-11 (11738290_x_at) / RFU MYO3A (11730013_a_at) / Fold change /veh MYO3A (11730013_a_at) / RFU EBF3 (11725865_a_at) / Fold change /veh EBF3 (11725865_a_at) / RFU CAMK2N1 (11719241_x_at) / Fold change /veh CAMK2N1 (11719241_x_at) / RFU C5orf56 (11738088_a_at) / Fold change /veh C5orf56 (11738088_a_at) / RFU OLFML3 (11715873_a_at) / Fold change /veh OLFML3 (11715873_a_at) / RFU LOC100653217 /// NTM (11731650_a_at) / Fold change /veh LOC100653217 /// NTM (11731650_a_at) / RFU MAPK11 (11762145_a_at) / Fold change /veh MAPK11 (11762145_a_at) / RFU FIZ1 (11724087_x_at) / Fold change /veh FIZ1 (11724087_x_at) / RFU OASL (11726364_x_at) / Fold change /veh OASL (11726364_x_at) / RFU SOX15 (11748057_x_at) / Fold change /veh SOX15 (11748057_x_at) / RFU CD79A (11719716_a_at) / Fold change /veh CD79A (11719716_a_at) / RFU HIST1H1D (11736915_at) / Fold change /veh HIST1H1D (11736915_at) / RFU CASKIN2 (11723855_a_at) / Fold change /veh CASKIN2 (11723855_a_at) / RFU LOC730098 (11760151_x_at) / Fold change /veh LOC730098 (11760151_x_at) / RFU OR4N2 (11742367_at) / Fold change /veh OR4N2 (11742367_at) / RFU PRRT2 (11749266_a_at) / Fold change /veh PRRT2 (11749266_a_at) / RFU SNX32 (11753110_a_at) / Fold change /veh SNX32 (11753110_a_at) / RFU CDHR5 (11726645_a_at) / Fold change /veh CDHR5 (11726645_a_at) / RFU RCAN1 (11760418_a_at) / Fold change /veh RCAN1 (11760418_a_at) / RFU FAM167A (11723789_a_at) / Fold change /veh FAM167A (11723789_a_at) / RFU FAM26E (11764081_at) / Fold change /veh FAM26E (11764081_at) / RFU ISYNA1 (11749810_s_at) / Fold change /veh ISYNA1 (11749810_s_at) / RFU ACY1 (11761880_at) / Fold change /veh ACY1 (11761880_at) / RFU 11764098_at / Fold change /veh 11764098_at / RFU SAMD14 (11745864_x_at) / Fold change /veh SAMD14 (11745864_x_at) / RFU NPB (11741838_a_at) / Fold change /veh NPB (11741838_a_at) / RFU TMPRSS6 (11731388_a_at) / Fold change /veh TMPRSS6 (11731388_a_at) / RFU KRTAP10-2 (11738614_at) / Fold change /veh KRTAP10-2 (11738614_at) / RFU ARHGAP8 /// PRR5-ARHGAP8 (11727945_x_at) / Fold change /veh ARHGAP8 /// PRR5-ARHGAP8 (11727945_x_at) / RFU KRTAP5-7 /// NADSYN1 (11734609_at) / Fold change /veh KRTAP5-7 /// NADSYN1 (11734609_at) / RFU RASL12 (11751679_a_at) / Fold change /veh RASL12 (11751679_a_at) / RFU CDKN2B (11736163_a_at) / Fold change /veh CDKN2B (11736163_a_at) / RFU PRF1 (11729649_at) / Fold change /veh PRF1 (11729649_at) / RFU, ZNF638 /// ZNF638-IT1 / Fold change vs veh, ZNF638 /// ZNF638-IT1 / RFU, PANK3 / Fold change vs veh, PANK3 / RFU, SH3YL1 / Fold change vs veh, SH3YL1 / RFU, ZEB2 / Fold change vs veh, ZEB2 / RFU, NRIP1 / Fold change vs veh, NRIP1 / RFU, PTTG1IP / Fold change vs veh, PTTG1IP / RFU, CAPN2 / Fold change vs veh, CAPN2 / RFU, MED14 / Fold change vs veh, MED14 / RFU, SNORA58 / Fold change vs veh, SNORA58 / RFU, C1orf63 / Fold change vs veh, C1orf63 / RFU, LRRFIP1 / Fold change vs veh, LRRFIP1 / RFU, NDUFAF7 / Fold change vs veh, NDUFAF7 / RFU, SLC12A2 / Fold change vs veh, SLC12A2 / RFU, IBTK / Fold change vs veh, IBTK / RFU, ESF1 / Fold change vs veh, ESF1 / Fold change vs veh, TMEM50B / RFU, TAOK1 / Fold change vs veh, TAOK1 / RFU, ACBD3 / Fold change vs veh, ACBD3 / RFU, TMA16 / Fold change vs veh, TMA16 / RFU, RWDD3 / Fold change vs veh, RWDD3 / RFU, BCAT1 / Fold change vs veh, BCAT1 / RFU, EDEM3 / Fold change vs veh, EDEM3 / RFU, TMEM33 / Fold change vs veh, TMEM33 / RFU, WDR75 / Fold change vs veh, WDR75 / RFU, AHCTF1 / Fold change vs veh, AHCTF1 / RFU, TFRC / Fold change vs veh, TFRC / RFU, ZDHHC17 / Fold change vs veh, ZDHHC17 / RFU, NOM1 / Fold change vs veh, NOM1 / RFU, ARL8B / Fold change vs veh, ARL8B / RFU, ZBTB11 / Fold change vs veh, ZBTB11 / RFU, TAMM41 / Fold change vs veh, TAMM41 / RFU, KIAA1704 /// LOC100996395 / Fold change vs veh, KIAA1704 /// LOC100996395 / RFU, ING1 / Fold change vs veh, ING1 / RFU, TRMT61B / Fold change vs veh, TRMT61B / RFU, FUBP3 / Fold change vs veh, FUBP3 / RFU, TP53 / Fold change vs veh, TP53 / RFU, TNKS2 / Fold change vs veh, TNKS2 / RFU, ZFP14 / Fold change vs veh, ZFP14 / RFU, ACTR2 / Fold change vs veh, ACTR2 / RFU, PPP3R1 / Fold change vs veh, PPP3R1 / RFU, PIK3R1 / Fold change vs veh, PIK3R1 / RFU, HNRNPA1 / Fold change vs veh, HNRNPA1 / RFU, RNF170 / Fold change vs veh, RNF170 / RFU, ZNF28 / Fold change vs veh, ZNF28 / RFU, RNGTT / Fold change vs veh, RNGTT / RFU, OGT / Fold change vs veh, OGT / RFU, BRD1 / Fold change vs veh, BRD1 / RFU, MARS / Fold change vs veh, MARS / RFU, ZNF655 / Fold change vs veh, ZNF655 / RFU, FAHD1 / Fold change vs veh, FAHD1 / RFU, BDP1 / Fold change vs veh, BDP1 / RFU, LRRCC1 / Fold change vs veh, LRRCC1 / RFU, ARID1A / Fold change vs veh, ARID1A / RFU, ZNF146 / Fold change vs veh, ZNF146 / RFU, ZNF330 / Fold change vs veh, ZNF330 / RFU, GPN3 / Fold change vs veh, GPN3 / RFU, C9orf123 / Fold change vs veh, C9orf123 / RFU, N4BP2L2 / Fold change vs veh, N4BP2L2 / RFU, ARFIP1 / Fold change vs veh, ARFIP1 / RFU, FAM179B / Fold change vs veh, FAM179B / RFU, BCL10 / Fold change vs veh, BCL10 / RFU, UHRF1BP1L / Fold change vs veh, UHRF1BP1L / RFU, BET1 / Fold change vs veh, BET1 / RFU, CNOT2 / Fold change vs veh, CNOT2 / RFU, ZNF268 / Fold change vs veh, ZNF268 / Fold change vs veh, ZNF507 / RFU, DGCR2 / Fold change vs veh, DGCR2 / RFU, WDSUB1 / Fold change vs veh, WDSUB1 / Fold change vs veh, HSP90B1 /// MIR3652 / RFU, ADSS / Fold change vs veh, ADSS / RFU, GK / Fold change vs veh, GK / RFU, ZNF148 / Fold change vs veh, ZNF148 / RFU, TAF9 / Fold change vs veh, TAF9 / RFU, SLC1A5 / Fold change vs veh, SLC1A5 / RFU, SLMO2 / Fold change vs veh, SLMO2 / RFU, ABCC4 / Fold change vs veh, ABCC4 / RFU, LOC101060439 /// RAP1B / Fold change vs veh, LOC101060439 /// RAP1B / RFU, RFX7 / Fold change vs veh, RFX7 / RFU, GTPBP10 / Fold change vs veh, GTPBP10 / RFU, CNEP1R1 / Fold change vs veh, CNEP1R1 / RFU, BIVM-ERCC5 /// ERCC5 / Fold change vs veh, BIVM-ERCC5 /// ERCC5 / RFU, ILF3 / Fold change vs veh, ILF3 / RFU 11762660_at / Fold change /veh 11762660_at / RFU VCAN (11757783_s_at) / Fold change /veh VCAN (11757783_s_at) / RFU DDX43 (11728927_at) / Fold change /veh DDX43 (11728927_at) / RFU KRT8 (11758188_x_at) / Fold change /veh KRT8 (11758188_x_at) / RFU NKD1 (11759106_at) / Fold change /veh NKD1 (11759106_at) / RFU SRD5A1 (11742802_a_at) / Fold change /veh SRD5A1 (11742802_a_at) / RFU TPSAB1 /// TPSB2 (11721975_s_at) / Fold change /veh TPSAB1 /// TPSB2 (11721975_s_at) / RFU GSTM3 (11746129_a_at) / Fold change /veh GSTM3 (11746129_a_at) / RFU IL23R (11737362_x_at) / Fold change /veh IL23R (11737362_x_at) / RFU TMEM51 (11727254_a_at) / Fold change /veh TMEM51 (11727254_a_at) / RFU PIWIL2 (11732686_x_at) / Fold change /veh PIWIL2 (11732686_x_at) / RFU ORM1 (11744905_x_at) / Fold change /veh ORM1 (11744905_x_at) / RFU CCDC152 (11743942_at) / Fold change /veh CCDC152 (11743942_at) / RFU ECM1 (11717891_a_at) / Fold change /veh ECM1 (11717891_a_at) / RFU IL23R (11748794_a_at) / Fold change /veh IL23R (11748794_a_at) / RFU TNFAIP8L3 (11732012_x_at) / Fold change /veh TNFAIP8L3 (11732012_x_at) / RFU MBOAT4 (11741988_at) / Fold change /veh MBOAT4 (11741988_at) / RFU 11764193_at / Fold change /veh 11764193_at / RFU TMEM53 (11763286_at) / Fold change /veh TMEM53 (11763286_at) / RFU MAGEB2 (11727129_at) / Fold change /veh MAGEB2 (11727129_at) / RFU TMEM200A (11744735_a_at) / Fold change /veh TMEM200A (11744735_a_at) / RFU CCDC152 (11751479_a_at) / Fold change /veh CCDC152 (11751479_a_at) / RFU FAM211A (11726209_a_at) / Fold change /veh FAM211A (11726209_a_at) / RFU RGS16 (11746705_a_at) / Fold change /veh RGS16 (11746705_a_at) / RFU VCAN (11755009_s_at) / Fold change /veh VCAN (11755009_s_at) / RFU RHOB (11743442_s_at) / Fold change /veh RHOB (11743442_s_at) / RFU RGS16 (11720943_a_at) / Fold change /veh RGS16 (11720943_a_at) / RFU RGS16 (11720944_at) / Fold change /veh RGS16 (11720944_at) / RFU, VPS4B / Fold change vs veh, VPS4B / RFU, CREB1 / Fold change vs veh, CREB1 / RFU, DNAJC13 / Fold change vs veh, DNAJC13 / RFU, GNAQ / Fold change vs veh, GNAQ / RFU, CDK5R1 / Fold change vs veh, CDK5R1 / RFU, ZRANB3 / Fold change vs veh, ZRANB3 / RFU, CUL4A / Fold change vs veh, CUL4A / RFU, CCNY / Fold change vs veh, CCNY / RFU, UFL1 / Fold change vs veh, UFL1 / RFU, COG3 / Fold change vs veh, COG3 / RFU, DIAPH2 / Fold change vs veh, DIAPH2 / RFU, SKA2 / Fold change vs veh, SKA2 / RFU, AFF3 / Fold change vs veh, AFF3 / RFU, LMF1 / Fold change vs veh, LMF1 / RFU, IPO11 / Fold change vs veh, IPO11 / RFU, DFFB / Fold change vs veh, DFFB / RFU, FOXP1 / Fold change vs veh, FOXP1 / RFU, CARD8 / Fold change vs veh, CARD8 / RFU, STRN3 / Fold change vs veh, STRN3 / RFU, ADK / Fold change vs veh, ADK / RFU, RASSF2 / Fold change vs veh, RASSF2 / RFU, WIPF1 / Fold change vs veh, WIPF1 / RFU, LARP1B / Fold change vs veh, LARP1B / RFU, RASA1 / Fold change vs veh, RASA1 / RFU, RB1 / Fold change vs veh, RB1 / RFU, PPFIA1 / Fold change vs veh, PPFIA1 / RFU, MAT2A / Fold change vs veh, MAT2A / RFU, CCT5 / Fold change vs veh, CCT5 / RFU, WDR92 / Fold change vs veh, WDR92 / RFU, CUX1 / Fold change vs veh, CUX1 / RFU, TTC7A / Fold change vs veh, TTC7A / RFU, TMEM135 / Fold change vs veh, TMEM135 / RFU, DEPTOR / Fold change vs veh, DEPTOR / RFU, CPM / Fold change vs veh, CPM / RFU, DNAJB6 / Fold change vs veh, DNAJB6 / RFU, CACNA2D3 / Fold change vs veh, CACNA2D3 / RFU, DTX4 / Fold change vs veh, DTX4 / RFU, TFCP2 / Fold change vs veh, TFCP2 / RFU, GMCL1 /// GMCL1P1 / Fold change vs veh, GMCL1 /// GMCL1P1 / RFU, AEBP2 / Fold change vs veh, AEBP2 / RFU, SNHG1 /// SNORD22 /// SNORD25 /// SNORD26 /// SNORD27 /// SNORD28 /// SNORD29 /// SNORD31 / Fold change vs veh, SNHG1 /// SNORD22 /// SNORD25 /// SNORD26 /// SNORD27 /// SNORD28 /// SNORD29 /// SNORD31 / Fold change (Aza/veh), C12orf56 (ProbeSet 11735607_a_at) / Fold change (ACY-1035/veh), C12orf56 (ProbeSet 11735607_a_at) / Fold change (Aza/veh), FGFR1OP (ProbeSet 11751329_s_at) / Fold change (ACY-1035/veh), FGFR1OP (ProbeSet 11751329_s_at) / Fold change (Aza/veh), VPS36 (ProbeSet 11739960_a_at) / Fold change (ACY-1035/veh), VPS36 (ProbeSet 11739960_a_at) / RFU SYPL1 (11715823_x_at) / Fold change /veh SYPL1 (11715823_x_at) / RFU IGFBP7 (11715501_s_at) / Fold change /veh IGFBP7 (11715501_s_at) / RFU REEP3 (11722064_at) / Fold change /veh REEP3 (11722064_at) / RFU IGLL1 (11728026_x_at) / Fold change /veh IGLL1 (11728026_x_at): dose or concentration left out as unconfirmed",
  "conditions": "MV-4-11 cells, 48 hours",
  "data": [
    {"compound": "Nc1ccc(-c2cccs2)cc1NC(=O)c1ccc2c(c1)cc(C1CC1)n2CCN1CCOCC1", "note": "[ACY-1035]", "values": [
      {"measurement": "Fold change /veh RHOB (11743442_s_at)", "value": 1.20}
    ]}
  ]
}
